What was measured:
Type in all cases: cell-based
[1] = tested on: HIV-1 virus strain HTLV-IIIB; experiment: p24 detection by Western blot in HIV-infected cells after gag peptide treatment; settings: two weeks after infection, Western blot with anti-p24 MAbs
Description: (§1) Cells. Permanently growing T lymphocytes (Jurkat or H9 cells) were used for the in vitro experiments. The medium used was conventional RPMI 1640 with 10% FCS, 2% NaHCO3 (5% strength), 1% penicillin/streptavidin solution and 2 mg/l Polybrene. The experiments were carried out either in 96-well microtiter plates (Nunc) or in 24-well plates (Nunc).
(§2) Viruses. HIV-1 virus strain HTLV-IIIB and HIV-2 strain ROD were used.
In the first experiment, 50 μl of 1×10^6 jurkat cells/ml were pipetted into each well of 96-well plates, and each was infected with 50 μl (1000 TCID50) HTLV-IIIB. The gag peptide concentration was adjusted to 200 μg/ml or 40 μg/ml. After one week, 100 μl of supernatant were removed and any cells still present were removed by centrifugation. Then 80 μl of supernatant were placed on an uninfected jurkat cell culture. Viral antigen was detected in the infected cells by immunolabeling after a Western blot. For this, the cells remaining after the inhibition experiment were taken up in 2×SDS-PAGE sample buffer and fractionated in a 14% PAG. The fractionated proteins were then blotted onto a nitrocellulose membrane and incubated with an anti-p24 HIV-1 monoclonal antibody to detect viral proteins. […] Infectious HIV in the supernatant of the peptide-treated cells was analyzed by the reverse transcriptase assay. […]

[2] = tested on: HIV-1 virus strain HTLV-IIIB; experiment: Inhibition of HIV-1 synthesis: infectious virus / reverse transcriptase activity in detector cell culture supernatant; settings: for inhibitory effect on HIV-1 synthesis (reverse transcriptase activity of detector culture supernatant): Experiment 3 (FIG. 3), 100 TCID50 HIV-1, jurkat cells, detector cultures incubated two weeks; for inhibitory effect on HIV-1 synthesis: Experiments 1 and 2, jurkat cells, 1000 or 100 TCID50 HTLV-IIIB, peptide 200 or 40 μg/ml
Description: These peptides were added in various concentrations (200-40 μg/ml) to freshly infected jurkat cells. Infection was carried out with 100-1000 TCID50. The infection was analyzed by microscopic assessment and investigation of the supernatant for the content of infectious HIV. For this purpose, the cell supernatant was added to non-infected jurkat cells. After incubation for two weeks, this detector cell culture was examined for HIV under the microscope and by reverse transcriptase assay.
Permanently growing T lymphocytes (Jurkat or H9 cells) were used for the in vitro experiments. The medium used was conventional RPMI 1640 with 10% FCS, 2% NaHCO3 (5% strength), 1% penicillin/streptavidin solution and 2 mg/l Polybrene. The experiments were carried out either in 96-well microtiter plates (Nunc) or in 24-well plates (Nunc).
HIV-1 virus strain HTLV-IIIB and HIV-2 strain ROD were used.
(§3) Reverse transcriptase assay. The microassay for detecting viral reverse transcriptase was carried out by the method of Gregersen et al. (Gregersen et al. (1988) Detection of human immunodeficiency virus and other retroviruses in cell culture supernatants by a reverse transcriptase microassay. J. Virol. Methods 19, 161-168). Cell culture supernatants were concentrated five-fold by PEG precipitation. Positive controls (VC) were supernatants of untreated infected cell cultures, and negative controls (NC) were cell culture supernatants from uninfected cells. The value measured for the NC was doubled and used as value for excluding negative cells.
In the first experiment, 50 μl of 1×10^6 jurkat cells/ml were pipetted into each well of 96-well plates, and each was infected with 50 μl (1000 TCID50) HTLV-IIIB. The gag peptide concentration was adjusted to 200 μg/ml or 40 μg/ml. After one week, 100 μl of supernatant were removed and any cells still present were removed by centrifugation. Then 80 μl of supernatant were placed on an uninfected jurkat cell culture. […] Infectious HIV in the supernatant of the peptide-treated cells was analyzed by the reverse transcriptase assay.
1000 TCID50 HIV-1 were employed for infecting the jurkat cells. Reverse transcriptase activity measured in cpm in the cell culture supernatant from the detector cell culture. The supernatant was concentrated five-fold by PEG precipitation. VC=virus control; NC=negative control. Twice the NC value was used to exclude negative cell cultures. To improve clarity, the RT values are reported in the figure in logarithmic presentation.
100 TCID50 HIV-1 were employed to infect the jurkat cells. Reverse transcriptase activity measured in cpm in the cell culture supernatant from the detector cell culture. The supernatant was concentrated five-fold by PEG precipitation. VC=virus control; NC=negative control.

HIV-2 strain ROD = experiment: Inhibition of HIV-2 synthesis: reverse transcriptase activity in detector cell culture supernatant (Experiment 3); settings: Experiment 3 (FIG. 3); 100 TCID50 HIV-2, H9 cells
Description: as §1, §2, §3
H9 cells were infected with 100 TCID50 HIV-2 for this experiment. […]
100 TCID50 HIV-1 and HIV-2 were employed to infect the jurkat and H9 cells respectively. Reverse transcriptase activity measured in cpm in the cell culture supernatant from the detector cell culture. […]

| Sequence | p24 Detection [1] | inhibitory effect on HIV-1 synthesis (reverse transcriptase activity of detector culture supernatant) [2] | inhibitory effect on HIV-1 synthesis [2] | inhibition of HIV-2 synthesis (reverse transcriptase activity of detector culture supernatant) (HIV-2 strain ROD) |
| --- | --- | --- | --- | --- |
| NPGLLETSEGCROILGQLQPSLQT [Peptide 5] | (+) | strong inhibitory effect | exerted an inhibitory effect on HIV-1 synthesis | very clearly evident |
| WASRELERFAVNPGLLETSEGCRQ [Peptide 4, synthetic gag peptide from the p17 submembrane protein] | - | strong inhibitory effect | exerted an inhibitory effect on HIV-1 synthesis | very clearly evident |

Source: patent publication US5612453A, “Selected peptides of the group-specific antigen (gag) of human immunodeficiency virus (HIV), the preparation and use thereof” (Chiron Behring GmbH & Co., priority 1990, dated 1997)
